Test results: patent publication US12128023B2, “Pharmaceutical composition containing B-lapachone as active ingredient for prevention or treatment of cholestatic liver disease” (CUROME BIOSCIENCES CO., LTD., priority 2020, dated 2024)

Legend:
[1] = test system: DDC-induced cholestatic liver disease mice; test: Treatment effect in cholestatic liver disease-induced mice (DDC 3 days, then treatment 4 days); type: in vivo, C57BL/6 male mice
Procedure: The treatment effect of β-lapachone in cholestatic liver disease-induced mouse animals were investigated. After 8-week-old C57BL/6 male mice (Samtako, Korea) were divided into each group (=6), each group excluding a control group was fed a diet containing 0.1% DDC for 3 days. Thereafter, the mice were fed a diet with DDC control (vehicle), DDC-+β-lapachone 20 mg/kg, DDC-+β-lapachone 40 mg/kg, DDC-+β-lapachone 80 mg/kg, and positive control DDC+obeticholic acid 30 mg/kg for 4 days (total 7 days). After 7 days of feeding, the mice were sacrificed and then the blood was collected from the heart.

[2] = test system: DDC-induced cholestatic liver disease mice; test: Preventive effect in DDC-induced cholestatic liver disease mouse animal models (β-lapachone given 3 days before DDC); type: in vivo, C57BL/6 male mice
Procedure: DDC-induced cholestatic liver disease mouse animal models were prepared according to the method of Elisa Pose et al. by using 8-week-old C57BL/6 male mice (Samtako, Korea). Briefly, cholestatic liver disease was induced by feeding a standard rodent diet supplemented with 0.1% (w/w) DDC for 7 or 14 days. The 12-hour light and dark cycle was maintained and animals were allowed to free access to water. The standard rodent diet included medium wheat, wheat, corn, and corn gluten flour, and soybean oil (14% protein). All animal related procedures were reviewed and approved by the Institutional Animal Care and Use Committee of Korea Research Institute of Bioscience and Biotechnology (KRIBB), KRIBB-AEC-20165). The tissue staining of the cholestatic liver disease animal models was measured through H&E staining (basic tissue staining), Sirius Red staining (collagen staining), and Masson's trichrome staining (collagen, cytoplasm, muscle fibers, etc.), and the tissue staining was measured by a skilled researcher. To investigate the preventive effect of β-Lapachone (BL) on cholestatic liver disease, the mice were fed a diet with 0 (DDC-vehicle), 40 mg/kg (DDC-BL40) and 80 mg/kg (DDC-BL80) 3 days before DDC treatment (total 17 days) and, after 3 days, were fed a diet with DDC (total 14 days). After 14 days of DDC treatment, the mice were sacrificed and the liver was harvested including the portal vein (PV) and bile ducts of the mice, and the surrounding lesions were confirmed by H&E, and are shown in FIG. 1. The liver harvested in Example 2.1 was investigated for tissues or connective tissues around cells through Sirius Red and Masson's trichrome staining, which are shown in FIG. 2A. The expression of the factors in the liver tissue obtained from the cholestatic liver disease mouse animal models of Example 2.1 was performed by a real-time polymerase chain reaction was performed according to the following procedure. Total RNA from liver samples was extracted using Tri-RNA Reagent (Favrogen BIOTECH CORP, Nong-Ke Rd, Taiwan) according to the procedure presented by Favrogen, and was reverse transcribed into cDNA by using PrimeScript™ RT reagent Kit with gDNA Eraser (TAKARA Korea Biomedical Inc, Seoul, 08506, Korea). Quantitative PCR was performed using TB Green™ Premix Ex Tag™ II (Tli RNaseH Plus), ROX plus (TAKARA Korea Biomedical Inc, Seoul, 08506, Korea) and QuantStudio 5 Real-Time PCR Instrument (Thermo Fisher Scientific, Waltham, MA, USA).

[3] = test system: macrophage line Raw264.7; test: Inflammatory cytokine release in LPS and ATP treated macrophage line Raw264.7 (ELISA); type: cell-based; settings: Raw264.7, LPS 100 ng/ml, ATP 2.5 mM, 0.2, 0.5, 1, 2 μM β-lapachone, 24 hours; supernatant ELISA
Procedure: The macrophage line Raw264.7 (ATCC TIB-71, Manassas, VA, USA) was subcultured in DMEM supplemented with 10% FBS and 1% penicillin/streptomycin.
For inflammation induction, RAW264.7 cells were suspended in DMEM containing 2% FBS, inoculated in a 12-well plate to a cell number of 4×10^5/ml, and incubated in 5% CO2 incubator at 37° C. for 24 hours. With replacement with fresh media, the cells were treated with appropriate concentrations of a corresponding substance, LPS (100 ng/ml), and 0.2, 0.5, 1, and 2 μM β-lapachone, cultured for 24 hours, treated with ATP (2.5 mM), and then cultured for additional 30 minutes, and the supernatant was collected. The release of cytokines (IL-1β and TNF-α) of RaW264.7 macrophages was quantified using each cell-free supernatant-ELISA set (Invitrogen, Billerica, MA, USA) by Invitrogen according to the manufacture's instruction, and is shown in FIG. 14.

[4] = test system: Poly I:C-induced cholestatic liver disease animal models; test: Treatment effect in Poly I:C-induced primary biliary cirrhosis (PBC) mouse animal models; type: in vivo, C57BL/6 male mice
Procedure: Of cholestatic liver diseases, primary biliary cirrhosis (PBC) may be introduced to a similar state by using a viral RNA mimic and the Toll-like receptor polyinosinic-polycytidylic acid (Poly I:C). After 8-week-old C57BL/6 male mice (Samtako, Korea) were divided into each group (=6), each experimental group excluding a normal group was intraperitoneally administered 5 mg/kg Poly I:C twice a week for 8 weeks. Thereafter, the mice were fed a diet with control (vehicle), β-lapachone 40 mg/kg, β-lapachone 80 mg/kg, and positive control ursodeoxycholic acid 100 mg/kg and obeticholic acid 30 mg/kg for 8 weeks. On the 16th week of treatment, the experiment was ended, and the mice were sacrificed and then the blood was collected from the heart.

[5] = test system: LX-2 hepatic stellate cell line; test: Fibronectin and α-SMA protein expression in TGF-β1-treated LX-2 hepatic stellate cell line (immunoblotting); type: cell-based; settings: LX-2, 1 ng/ml TGF-β1 + 0.5 or 1 μM β-lapachone, 24 hours
Procedure: Considering that inflammation and fibrosis of bile ducts cause cirrhosis in cholestatic liver disease, experiments were performed on the LX-2 hepatic stellate cell line model by using the method of Takaaki Higashi et al. (2017). The LX-2 cell line was subcultured in DMEM containing 10% FBS, 2 mM glutamine, 100 U penicillin, and 0.1 mg/ml streptomycin. The LX-2 cell line was added into a 6-well plate at a density of 16×10^4 cells/well, and cultured in DMEM containing 1 ng/ml TGF-β1, 1 ng/ml TGF-β1+0.5 μM β-lapachone or 1 ng/ml TGF-β1+1 μM β-lapachone for 24 hours. Thereafter, the protein expression levels of the fibrosis-related genes fibronectin and α-SMA of the obtained cells were measured by protein immunoblotting according to a conventional method known in the art.

[6] = test system: DSS-induced inflammatory bowel disease mice; test: DSS-induced inflammatory bowel disease (acute colitis) mouse models; type: in vivo, C57BL/6 female mice; settings: for mortality (percent of mice that died): 14th day of the experiment, 70% died in DSS-induced IBD mice
Procedure: Dextran sodium sulfate (DSS)-induced acute colitis mouse models were constructed using 8-week-old C57BL/6 female mice (Samtako, Korea).
After 8-week-old C57BL/6 female mice (Samtako, Korea) were divided into each group (=10), each experimental group was fed a standard rodent diet supplemented with 3% (w/w) DSS in drinking water for the first 5 days to induce acute colitis and orally administered control (vehicle), β-lapachone 40 mg/kg, and β-lapachone 80 mg/kg for 14 days.
All animal-related procedures were discussed and approved by the Institutional Animal Care and Use Committee of the Hanyang University. The survival rate over time is shown in FIG. 9, and the change rate in body weight of mice in each experimental group was measured and shown in FIG. 10A. The fecal occult bleeding per rectum, total bleeding loss, and fecal concentration were measured daily.
By the same method as in Example 6.1, experimental groups were divided into a DSS untreated group (Control), a DSS treated group, and a DSS-+β-lapachone 80 mg/kg treated group, respectively, and treated. After the end of the experiment, the mice were sacrificed to remove the colon, and the accurate colon length was measured using a Vernier caliper, and is shown FIGS. 11A and 11B. In addition, the mRNA levels of genes of interleukin-1beta (IL-1β), interleukin-6 (IL-6), interleukin-18 (IL-18), interferon-γ (INF-γ), tumor necrosis factor-α (TNF-α), tumor necrosis factor-β (TNF-β), and monocyte chemoattractant protein-1 (MCP-1), which were inflammatory cytokine factors in the colon tissue, were analyzed by a real-time polymerase chain reaction through a conventional experiment procedure, and are shown in FIG. 12.

[7] = test system: DDC-induced cholestatic liver disease mice; test: DDC-induced cholestatic liver disease mice, DDC and β-lapachone administered together for 7 days; type: in vivo, C57BL/6 male mice
Procedure: To investigate the effect of β-lapachone (BL) on the occurrence of cholestatic liver disease, both […] and β-lapachone were administered to mice to characterize animal models.
After 8-week-old C57BL/6 male mice (Samtako, Korea) were divided into each group (=6), the mice were fed a diet with normal (vehicle), control (DDC), DDC-+β-lapachone 20 mg/kg, DDC+β-lapachone 40 mg/kg, DDC+β-lapachone 80 mg/kg, DDC+β-lapachone 100 mg/kg, and positive control DDC+ursodeoxycholic acid 100 mg/kg, and DDC+obeticholic acid 30 mg/kg (total 7 days). After 7 days of treatment, the mice were sacrificed and then the blood was collected from the heart. Thereafter, the levels of alanine aminotransferase (ALT), aspartate aminotransferase (AST), alkaline phosphatase (ALP), and bilirubin, which are blood indexes, were analyzed, and shown in FIG. 4.
After the cholestatic liver disease mouse animal models in Example 3.1 were sacrificed and the liver tissue was harvested therefrom, the mRNA levels of fibrosis-related genes were measured by a method similar to the method in Example 2.3.
In the cholestatic liver disease, the inflammation in the portal vein and damage to the bile ducts in the liver occur chronically, resulting in cholestasis and liver fibrosis. The mRNA levels of inflammatory cytokine genes in the liver tissue of the cholestatic liver disease mouse animal models obtained by the same method as in Example 3.1 were measured, and shown in FIG. 6.

[8] = test system: peripheral blood mononuclear cells (PBMCs); test: IL-1β and IL-18 expression in LPS and ATP treated peripheral blood mononuclear cells; type: cell-based, C57BL/6 male mice; settings: LPS 200 ng/mL and ATP, β-lapachone 0.5, 1, 2 μM, 4 hours
Procedure: Considering that inflammatory cytokines mediate the pathogenic mechanism of cholestatic liver disease, the peripheral blood mononuclear cell model was used by a modified method of Boyum et al. (1968). Peripheral blood mononuclear cells isolated from healthy 8-week-old C57BL/6 male mice (Samtako, Korea) were maintained by primary culture in RPMI-1640 medium containing 10% FBS, 2 mM glutamine, 100 U penicillin, and 0.1 mg/ml streptomycin. Stable peripheral blood mononuclear cells (PBMCs) were treated with LPS at 200 ng/mL and ATP and β-lapachone at 0, 0.5, 1, 2 μM in the medium and, after 4 hours, the expression levels of IL-1β and IL-18 were investigated, and the results are shown in FIG. 15.

[9] = 0.1% DDC 3 days, then DDC + β-lapachone 20, 40, 80 mg/kg in diet 4 days, depending on the concentration
[10] = liver mRNA, DDC-BL40 and DDC-BL80 vs DDC-vehicle
[11] = Poly I:C 5 mg/kg i.p. 8 weeks, then β-lapachone 40, 80 mg/kg in diet 8 weeks
[12] = vs ursodeoxycholic acid 100 mg/kg and obeticholic acid 30 mg/kg
[13] = DSS + β-lapachone 80 mg/kg vs DSS
[14] = DDC + β-lapachone 20, 40, 80, 100 mg/kg in diet, depending on the concentration
[15] = liver mRNA, DDC + β-lapachone, depending on the concentration

Structure (SMILES): CC1(C)CCC2=C(O1)c1ccccc1C(=O)C2=O [β-lapachone]
- ALP in the blood [1, 9]: inhibited
- bilirubin in the blood [1, 9]: inhibited
- effect on blood indexes (bilirubin, ALP) compared with positive controls ([1]; vs ursodeoxycholic acid (UDCA) and obeticholic acid (OCA)): excellent effect compared with ursodeoxycholic acid (UDCA) and obeticholic acid (OCA)
- lesions around the portal vein (PV) and bile ducts (H&E) ([2]; DDC-BL40 and DDC-BL80 (40 and 80 mg/kg in diet, 17 days; DDC 14 days) compared with DDC-vehicle, concentration dependent): significant lesion reductions
- transcriptional level of Col1α1 [2, 10]: significantly reduced
- transcriptional level of Col4α1 [2, 10]: significantly reduced
- transcriptional level of TGF-β1 [2, 10]: significantly reduced
- transcriptional level of fibronectin [2, 10]: significantly reduced
- transcriptional level of α-SMA [2, 10]: significantly reduced
- formation of connective tissues (Sirius Red and Masson's trichrome staining) ([2]; liver of DDC mice treated with β-lapachone 40 and 80 mg/kg vs DDC-vehicle): inhibited such fibrosis progression
- expression level of IL-1β protein increased by LPS and ATP [3]: reduced depending on the concentration
- expression level of TNF-α protein increased by LPS and ATP [3]: reduced depending on the concentration
- ALP in the blood [4, 11]: inhibited
- ALT in the blood [4, 11]: inhibited
- AST in the blood [4, 11]: inhibited
- effect on blood indexes (AST, ALT, ALP) compared with comparative substances [4, 12]: excellent effect compared with the comparative substances ursodeoxycholic acid (UDCA) and obeticholic acid (OCA)
- protein expression level of fibronectin increased by TGF-β1 [5]: reduced depending on the concentration
- protein expression level of α-SMA increased by TGF-β1 [5]: reduced depending on the concentration
- mRNA level of IL-1β in colon tissue [6, 13]: significantly reduced
- mRNA level of IL-6 in colon tissue [6, 13]: significantly reduced
- mRNA level of IL-18 in colon tissue [6, 13]: significantly reduced
- mRNA level of INF-γ in colon tissue [6, 13]: significantly reduced
- mRNA level of MCP-1 in colon tissue [6, 13]: significantly reduced
- mRNA level of TNF-α in colon tissue [6, 13]: significantly reduced
- mRNA level of TNF-β in colon tissue [6, 13]: significantly reduced
- colon length ([6]; DSS + β-lapachone 80 mg/kg vs DSS treated group): recovered
- colitis score ([6]; sum of scores for body weight reduction, feces condition, blood feces (Table 3), β-lapachone 40 and 80 mg/kg): reduced depending on the treatment concentration
- mortality (percent of mice that died) ([6]; β-lapachone 40 mg/kg orally): 50%
- mortality (percent of mice that died) ([6]; β-lapachone 80 mg/kg orally): 20%
- ALP in the blood [7, 14]: inhibited
- ALT in the blood [7, 14]: inhibited
- AST in the blood [7, 14]: inhibited
- bilirubin in the blood [7, 14]: inhibited
- transcriptional level of IL-1β ([7]; liver mRNA, DDC + β-lapachone): inhibited
- transcriptional level of TNFα ([7]; liver mRNA, DDC + β-lapachone): inhibited
- transcriptional level of Col1α1 [7, 15]: inhibited
- transcriptional level of Col1α2 [7, 15]: inhibited
- transcriptional level of TGF-β1 [7, 15]: inhibited
- effect on blood indexes (ALT, AST, ALP, bilirubin) compared with positive controls [7, 12]: excellent effects compared with ursodeoxycholic acid (UDCA) and obeticholic acid (OCA)
- expression level of IL-1β increased by LPS and ATP [8]: reduced depending on the concentration
- expression level of IL-18 increased by LPS and ATP [8]: reduced depending on the concentration
